Experimental findings from ChEMBL document CHEMBL1772933, “Didemnidines A and B, indole spermidine alkaloids from the New Zealand ascidian Didemnum sp” (J Nat Prod, 2011) are described below.

The term IC50 denotes the concentration that inhibits the measured activity by half.

Calls of active or inactive are those of the source. No cut-off for these calls is given here.

Test [1] relates to Neutrophil. Description: Inhibition of PMA-stimulated superoxide production in human neutrophils assessed as respiratory burst. In kind it is functional, cell-based.
The test system of test [2] is Leishmania donovani. Description: Antiprotozoal activity against Leishmania donovani MHOM/ET/67/L82 after 72 hrs by fluorimetry. Format: functional, organism-based. The conditions noted are these: MHOM/ET/67/L82, 72 h.
For test [3], the system named is Trypanosoma cruzi. Description: Antiparasitic activity against intracellular amastigotes of Trypanosoma cruzi Tulahuen C2C4 expressing LacZ gene infected in rat L6 cells after 96 hrs by photometrically. Format: functional, organism-based. The conditions noted are these: Tulahuen C2C4, L6, 96 h.
The subject of test [4] is Plasmodium falciparum. Description: Antimalarial activity against chloroquine- and pyrimethamine-resistant Plasmodium falciparum K1 assessed as [3H]-hypoxanthine incorporation after 48 hrs by liquid scintillation counting. Format: functional, organism-based.
The subject of test [5] is Trypanosoma brucei rhodesiense. Description: Antiparasitic activity against bloodstream form of Trypanosoma brucei rhodesiense STIB 900 after 72 hrs by microplate reader assay. In kind it is functional, organism-based. As to conditions: STIB 900, 72 h.
Test [6] deals with Saccharomyces cerevisiae. Description: Inhibition of yeast FTase in presence of farnesyl pyrophosphate.
Test [7] deals with L6. Description: Cytotoxicity against rat L6 cells after 72 hrs by alamar blue assay. Format: cell-based. As to conditions: L6, 72 h. A general note: Alamar Blue is a resazurin reagent that responds to reducing activity.
Test [8] concerns the target T1, Phospholipase A2 (Apis mellifera) (UniProt P00630).
T1 sequence (whole entry): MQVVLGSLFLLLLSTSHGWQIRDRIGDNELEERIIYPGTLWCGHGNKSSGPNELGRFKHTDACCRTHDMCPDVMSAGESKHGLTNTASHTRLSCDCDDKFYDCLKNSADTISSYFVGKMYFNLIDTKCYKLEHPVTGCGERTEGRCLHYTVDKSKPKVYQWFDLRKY
Description: Inhibition of Apis mellifera venom PLA2 by colorimetric bioassay.

On to `O=C1NC(=O)C(c2c[nH]c3cc(Br)ccc23)=C1c1cnc[nH]1`, for which the inhibition result in test [1] is “inactive”.

For `Cn1cncc1C1=C(c2c[nH]c3ccccc23)C(=O)NC1=O`, the inhibition result in test [1] is “inactive”.

`CC(C)(C)OC(=O)NCCCCNCCCNC(=O)C(=O)c1c[nH]c2cc(Br)ccc12`: the concentration for half-maximal inhibition (IC50) is more than 160 µM in test [2]; 28 µM in test [3]; 8.4 µM in test [4]; 9.9 µM in test [5]; 25 µM in test [7]. Also, the inhibition result in test [1], in test [6] and in test [8] was “inactive” throughout.

Regarding `CC(C)(C)OC(=O)NCCCCNCCCNC(=O)C(=O)c1c[nH]c2ccccc12`, the 50% inhibitory concentration (IC50) is more than 190 µM in test [2]; 88 µM in test [3]; 32 µM in test [4]; 34 µM in test [5]; 73 µM in test [7]. The inhibition result in test [1], in test [6] and in test [8] was “inactive” each time.

As to `NCCCCNCCCNC(=O)C(=O)c1c[nH]c2ccccc12` [DIDEMNIDINE A], the IC50 in test [2] is more than 180 µM; in test [3], 130 µM; in test [4], 41 µM; in test [5], 59 µM; in test [7] it was 24 µM. Further, the inhibition entry in test [1], in test [6] and in test [8] was “inactive” throughout.

`CCCCCCCCCCCCCCCCOP(=O)([O-])OCC[N+](C)(C)C` [MILTEFOSINE] displayed a half-maximal inhibitory concentration (IC50) in test [2] of 0.52 µM.

`NCCCCNCCCNC(=O)C(=O)c1c[nH]c2cc(Br)ccc12` [DIDEMNIDINE B]: the IC50 is more than 160 µM in test [2]; 82 µM in test [3]; 15 µM in test [4]; 44 µM in test [5]; 25 µM in test [7]. Also, the inhibition entry in test [1], in test [6] and in test [8] was “inactive” throughout.

Compound `COc1cc([C@@H]2c3cc4c(cc3[C@H](O)[C@H]3COC(=O)[C@H]23)OCO4)cc(OC)c1OC` [PODOFILOX] registered a half-inhibitory concentration (IC50) in test [7] of 0.01 µM.

Turning to `O=C(Cn1ccnc1[N+](=O)[O-])NCc1ccccc1` [BENZNIDAZOLE], half-maximal inhibition in test [3] (IC50) required 1.35 µM.

`O=C1NC(=O)C(c2c[nH]c3ccccc23)=C1c1cnc[nH]1`: the inhibition result in test [1] was “inactive”.

With `Cn1cncc1C1=C(c2c[nH]c3cc(Br)ccc23)C(=O)NC1=O`, the inhibition result in test [1] is “inactive”.
